One assay deals with cortical neurons. Put plainly: Calcium imaging on primary cortical neurons (SOCE, glutamate-triggered action potential). As to conditions: FIG. 15. It counts as cell-based, mouse. Here is the method: GA enhances SOCE and calcium influx during glutamate-triggered action potentials. Fluorescent microscopy images in a show the effect of calcium, glutamate and ionomycin on intracellular calcium in Fluo-4 AM charged cortical neurons at different time points.
Primary cortical neuronal cell cultures were prepared from E15.5 embryos. Briefly, brain cortex from E15.5 pregnant wild type C57Bl/6J or PARK-7^−/− mice were dissected and placed in cold HBSS without Ca2+ and Mg2+(Sigma Aldrich H6648, Germany, EU). Once freed from all other cerebral structures, cortex were placed in an empty petri dish, sliced with the help of a scalpel and trypsinized using a 1:1 mixture of Trypsin (Gibco 25200-056):HBSS at 37° C. for 7 min. The samples were then centrifuged for 4 min. at 800 rpm and the supernatant was replaced with plating medium (89% Neurobasal A, 8.9% FBS, 0.9% L-glutamine, 0.9% N2 supplement and 0.4% P/S). […]
Variations in the Fluo-4 AM fluorescence during Ca^2+ and/or glutamate addition were analyzed using FIJI Image Analysis Freeware. The ROIs were determined using the standard deviation function for the stack of images before and after the addition of 1.8 mM CaCl2 (for changes in intracellular Ca^2+) or before and after the addition of glutamate. […] Once all ROIs were identified and selected, the MFI of each ROI for each time-point was measured with the measure function of the program to generate a matrix with the raw MFI values for each ROI for each time point. […] To determine the effect of GA and DL on Ca^2+ influx after CaCl2 addition and after glutamate addition, all ROIs where normalized using a max-min normalization as previously described: ([Ca^2+]Ca—[Ca^2+]t0/([Ca^2+]ionomycine-[Ca^2+]t0) Once the new matrix with the normalized values was generated, we determined the area under the curve (AUC) in excel using the formula: (Y1+Y2)/2*(X2−X1). The AUC was then obtained as the sum of all the generated values.

In a further assay the test system is dopaminergic neurons. Kind of assay: Survival of dopaminergic neurons with paraquat 25 μM challenge (Example 1, FIG. 1). Type of assay: cell-based, mouse. The method, then: Dopaminergic neurons were isolated and plated at a concentration of 1.000.000 cells/ml (100 μl/well) in a 96 well plate and cultured in medium with one or more of the various factors indicated, as described in the examples below. The survival of dopaminergic neurons in the presence and absence of various agents of the invention, either with or without paraquat challenge, is shown by the number of TH positive neurons normalized to the control treatment.
Dopaminergic neurons were isolated and plated at a concentration of 1.000.000 cells/ml (100 μl/well) in a 96 well plate. After 3-4 hours incubation at 37° C., 20 μl of medium was removed from each well. (VF=80 μl). Changes in medium and start point of the treatment were done in the following day in vitro (DIV). The following protocol was employed in order to assess the survival of dopaminergic neurons in the presence and absence of various agents of the invention combination, either with or without paraquat challenge. • DIV.1: Change half of medium N2 (40 μl) with fresh medium N2. • DIV.3: Change half of the medium and start with medium (control) or with medium A containing LA (different concentrations) and/or GA (normally 5 mM or 10 mM). Medium A is N2 medium but without FBS and N2-Supplement. • DIV.5: Second round of control or treatment with LA and/or GA. Half of the medium (40 μl) was replaced by fresh medium A with the different agents. • DIV.7: Paraquat 25 μM treatment starts with or without GA and L-alanine. Half of the medium (40 μl) was replaced by fresh medium A with the different treatment combinations or without (control). • DIV.9: Second day of treatment with Paraquat (PQ) 25 μM in addition to the other substances (LA and GA). • DIV.10: Fixation 2% of PFA during 20 min at 37° C. or overnight at 4° C.
Primary mesencephalic neuronal cell cultures were prepared as previously described. Briefly, E14.5 embryos were obtained from C57JBL6 pregnant mice after cervical dislocation. Brain mesencephali were dissected under the microscope and digested with Trypsin-EDTA 0.12% (Life Technologies, USA) for 7 min. The trypsin reaction was then stopped by adding basic medium (BM), containing Neurobasal A medium (Gibco, USA), 1 mg/mL Pen/Strep, 10% FCS, and […] L-Glutamine, and cells were mechanically dissociated using a fire-polished Pasteur pipette. Medium was fully replaced after 5 min, centrifugation at 1200 rpm, aspiring the supernatant and adding 8 mL of fresh BM to the pellet. Concentration of cells in the medium was estimated using a Neubauer chamber and a 100 μL of medium containing 10^6 cells/mL plated per well in a 96-well plate (Greiner Sensoplate, Germany, EU). Then a 20 μL of medium was removed from the well and 24 h later, ⅓ of the media was replaced with fresh BM. […]

Results on one molecule are retold here after patent publication US20230277491A1, “PHARMACEUTICAL COMBINATION COMPRISING GLYCOLIC ACID AND L-ALANINE” (priority 2020, published 2023).

In the case of `O=C(O)CO` [GA, 2-hydroxyethanoic acid], in the assay with cortical neurons (2.5 mM GA), the “intracellular calcium during the glutamate-triggered action potential” value is listed as “higher increases in intracellular calcium during the action potential”. Moreover, the “storage operated calcium entry (SOCE)” value in the assay on cortical neurons (2.5 mM GA, after addition of calcium) is given as “increased storage operated calcium entry (SOCE)”. For the same molecule, the calcium transients entry with cortical neurons was “bigger calcium transients”. In addition, the figures for the “survival of dopaminergic neurons (rescue)” value in the assay on dopaminergic neurons (5 mM GA with PQ 25 μM) and in the assay on dopaminergic neurons (10 mM GA with PQ 25 μM) were “rescue over PQ treatment alone” and “rescued completely”, respectively.
